Reference: US9643964B2, “3-(2-aminopyrimidin-4-yl)-5-(3-hydroxypropynyl)-1H-pyrrolo[2,3-C]pyridine derivatives as NIK inhibitors for the treatment of cancer” (Janssen Pharmaceutica NV, priority 2013, dated 2017)

Experiments:
[1] = target: T1, Recombinant Human NF-kappaB-Inducing Kinase (NIK/MAP3K14) (Homo sapiens, UniProt Q99558); assay: Biological Assay A: inhibition of recombinant human NIK/MAP3K14 activity (MBP phosphorylation, Mesoscale); assay type: biochemical; details: averaged over all measurements on all batches; read-out: Biochemical (MSD MBP) IC50
T1 sequence (Q99558 whole entry): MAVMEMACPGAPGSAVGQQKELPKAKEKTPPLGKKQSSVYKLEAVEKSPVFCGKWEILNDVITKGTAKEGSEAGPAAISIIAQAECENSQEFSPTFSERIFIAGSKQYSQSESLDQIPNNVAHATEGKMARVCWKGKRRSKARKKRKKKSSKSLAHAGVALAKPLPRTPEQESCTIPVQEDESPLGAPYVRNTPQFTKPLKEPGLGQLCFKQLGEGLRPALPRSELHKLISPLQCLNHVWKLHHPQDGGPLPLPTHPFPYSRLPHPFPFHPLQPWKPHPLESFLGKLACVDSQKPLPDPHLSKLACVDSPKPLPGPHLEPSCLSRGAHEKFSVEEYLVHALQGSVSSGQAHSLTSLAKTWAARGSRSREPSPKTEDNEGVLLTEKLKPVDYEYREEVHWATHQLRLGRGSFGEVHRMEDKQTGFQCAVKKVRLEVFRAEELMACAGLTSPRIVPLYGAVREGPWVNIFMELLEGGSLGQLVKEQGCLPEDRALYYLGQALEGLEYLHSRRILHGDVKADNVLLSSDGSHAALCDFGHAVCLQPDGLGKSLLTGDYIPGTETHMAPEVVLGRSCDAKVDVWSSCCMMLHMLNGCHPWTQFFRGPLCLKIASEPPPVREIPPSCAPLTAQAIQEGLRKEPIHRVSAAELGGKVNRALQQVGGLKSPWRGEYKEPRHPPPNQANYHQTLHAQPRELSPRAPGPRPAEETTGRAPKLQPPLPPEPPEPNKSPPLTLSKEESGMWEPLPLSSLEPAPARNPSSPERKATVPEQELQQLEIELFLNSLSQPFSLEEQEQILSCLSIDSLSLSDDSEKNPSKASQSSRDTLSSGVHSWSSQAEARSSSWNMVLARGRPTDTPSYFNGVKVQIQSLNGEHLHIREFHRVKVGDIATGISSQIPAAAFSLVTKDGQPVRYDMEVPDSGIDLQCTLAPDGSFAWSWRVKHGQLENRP
Outline: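 10 nM NIK with 25 μM ATP on MBP-coated plates in Tris pH 7.5 buffer with MgCl2, DTT and Na3VO4 and 1% DMSO, for 1 h at 25° C. Phospho-MBP was detected by anti-phospho-MBP and Sulfotag electrochemiluminescence; after blank subtraction, IC50 came from a sigmoidal fit of % inhibition.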

[2] = target: T1, Recombinant Human NF-kappaB-Inducing Kinase (NIK/MAP3K14); assay: Biological Assay A2: inhibition of auto-phosphorylation of recombinant human NIK/MAP3K14 (AlphaScreen); assay type: biochemical; details: auto-phosphorylation; averaged over all measurements on all batches; read-out: αscreen IC50
Outline: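 AlphaScreen readout of anti-phospho-IKK Ser176/180 signal after 1 h, 25° C. incubation of 0.2 nM GST-NIK with compound and 25 microM ATP (Tris pH 7.5 buffer, MgCl2, 1% DMSO final). IC50 from sigmoidal fit of blank-corrected % inhibition against Log10 concentration.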

[3] = system: P-IKKα levels in L363 cells; assay: Biological Assay B: effect of compounds on P-IKKα levels in L363 cells; assay type: cell-based; details: Homo sapiens, L-363, averaged values, read-out: IKKα Cellular IC50
Procedure: Effect of Compounds on P-IKKα Levels in L363 Cells
All compounds tested were dissolved in DMSO and further dilutions were made in culture medium. Final DMSO concentration was 1% (v/v) in cell assays. The human L363 cells (ATCC) were cultured in RPMI 1640 medium supplemented with GlutaMax and 10% fetal calf serum (PAA). Cells were routinely maintained at densities of 0.2×10^6 cells per ml-1×10^6 cells per ml at 37° C. in a humidified 5% CO2 atmosphere. Cells were passaged twice a week splitting back to obtain the low density. Cells were seeded in 96 well plates (Nunc 167008) at 2×10^6 per ml media in a volume of 75 μl per well plus 25 μl 1 μg/ml recombinant human B-cell activating factor BAFF/B1YS/TNFSF13B. Seeded cells were incubated at 37° C. in a humidified 5% CO2 atmosphere for 24 hr. Drugs and/or solvents were added (20 μl) to a final volume of 120 μl. Following 2 hr treatment plates were removed from the incubator and cell lysis was achieved by the addition of 30 μl 5× lysis buffer followed by shaking on a plate shaker at 4° C. for 10 min. At the end of this incubation lysed cells were centrifuged at 800×g for 20 min at 4° C. and the lysate was assessed for P-IKKα levels by sandwich immuno-assay carried out in anti-rabbit antibody coated Mesoscale plates. Within an experiment, the results for each treatment were the mean of 2 replicate wells. For initial screening purposes, compounds were tested using an 8 point dilution curve (serial 1:3 dilutions). For each experiment, controls (containing MG132 and BAFF but no test drug) and a blank incubation (containing MG132 and BAFF and 10 μM ADS125117, a test concentration known to give full inhibition) were run in parallel. The blank incubation value was subtracted from all control and sample values. To determine the IC50 a sigmoidal curve was fitted to the plot of % inhibition of control P-IKKα levels versus Log10 compound concentration.

LP-1 cells = assay: Biological Assay C: antiproliferative activity on LP-1 cells (CellTiter-Glo); assay type: cell-based, human; details: Homo sapiens, LP-1, 72 h, 72 hr treatment; averaged values
Outline: (§1)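 Luminescent ATP signal (CellTiter-Glo) measures growth of myeloma cells following a 72 h compound treatment. Values for the time-zero blank are subtracted, and each mean of duplicate wells is given as percentage of the no-drug control.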

L-363 cells = assay: Biological Assay C: antiproliferative activity on L-363 cells (CellTiter-Glo); assay type: cell-based, human; details: Homo sapiens, L-363, 72 h, 72 hr treatment; averaged values
Outline: as §1

JJN-3 cells = assay: Biological Assay C: antiproliferative activity on JJN-3 cells (CellTiter-Glo); assay type: cell-based, human; details: Homo sapiens, JJN-3, 72 h, 72 hr treatment; averaged values
Outline: as §1

Compound	IC50 [1] [nM]	IC50 [2] [nM]	IC50 [3] [nM]	EC50 (LP-1 cells) [nM]	EC50 (L-363 cells) [nM]	EC50 (JJN-3 cells) [nM]
CC(C)(O)C#Cc1cc2c(-c3ccnc(N)n3)cn(CC3CCOCC3)c2cn1 [Compound 55]	84	180	140	11000	980	380
CC(C)(O)C#Cc1cc2c(-c3ccnc(N)n3)cn(CC#N)c2cn1 [Compound 56]	25	18	140	14000	840	840
CC(C)(O)C#Cc1cc2c(-c3ccnc(N)n3)cn(CCC#N)c2cn1 [Compound 57]	17	23	180	31000	910	1300
CNc1ncc(Cl)c(-c2cn(CC(C)(C)O)c3cnc(C#CC(C)(C)O)cc23)n1 [Compound 58]	430	700	110	2000	500	550
CC(C)(O)Cn1cc(-c2ccnc(N)n2)c2cc(C#CC(C)(O)c3ccccn3)ncc21 (stereo not drawn) [Compound 59]	71	230	5000	> 10000	> 10000	17000
CC(C)(O)C#Cc1cc2c(-c3nc(N)ncc3C#N)cn(CC(C)(C)O)c2cn1 [Compound 60]	8.4	11	19	14000	150	170
CC(C)(O)C#Cc1cc2c(-c3nc(N)ncc3C(F)(F)F)c[nH]c2cn1 [Compound 61]	3.8	5	23	4600	340	260
CC(C)(O)C#Cc1cc2c(-c3nc(N)ncc3F)cn(CC(C)(C)O)c2cn1 [Compound 64]	5.2	29	20	2000	51	81
CC(C)(O)C#Cc1cc2c(-c3ccnc(N)n3)cn(C3COC3)c2cn1 [Compound 65]	15	54	140	7000	400	470
CC(C)(O)C#Cc1cc2c(-c3ccnc(N)n3)cn(C(C)(C)CO)c2cn1 [Compound 66]	5.8	52	240	7600	270	250
CC(C)(O)C#Cc1cc2c(-c3ccnc(N)n3)cn(CCS(C)(=O)=O)c2cn1 [Compound 67]	57	30	880	> 10000	2400	2400
CNc1nccc(-c2cn(CC(C)(C)O)c3cnc(C#CC(C)(C)O)cc23)n1 [Compound 68]	130	47	360	16000	960	1500
COCCNC(=O)c1c(-c2ccnc(N)n2)c2cc(C#CC(C)(C)O)ncc2n1C [Compound 69]	250	89	600	16000	870	1800
CN1CC(n2cc(-c3nc(N)ncc3F)c3cc(C#CC(C)(C)O)ncc32)C1 [Compound 70]	28	130	51	3000	120	210
CC(C)(O)Cn1cc(-c2ccnc(N)n2)c2cc(C#CC(C)(O)C(F)(F)F)ncc21 (stereo not drawn) [Compound 111]	220	190	290	7500	1300	640
Cc1cnc(N)nc1-c1c[nH]c2cnc(C#CC(C)(C)O)cc12 [Compound 112]	6.3	17	140	14000	1300	440
